According to patent US8138206B2, “Piperidine derivative” (MSD. K.K., priority 2005, dated 2012):
Counter-ions that a name gives are not always drawn. Like-named read-outs stand apart in the source and are kept apart here.

Assays:
[1] = biological target: T1, human histamine-H3 receptor (Homo sapiens, UniProt Q9Y5N1); experiment: Histamine analogue-binding inhibition test; conditions: 50% inhibitory concentration to specific [3H]N-α-methylhistamine binding; membrane specimen of cells expressing histamine-H3 receptor; 25° C., 2 hours
T1 construct: expressed in transfected cells; host or cells: HEK293 and CHO-K1 (membrane specimen)
T1 sequence (Q9Y5N1 whole entry): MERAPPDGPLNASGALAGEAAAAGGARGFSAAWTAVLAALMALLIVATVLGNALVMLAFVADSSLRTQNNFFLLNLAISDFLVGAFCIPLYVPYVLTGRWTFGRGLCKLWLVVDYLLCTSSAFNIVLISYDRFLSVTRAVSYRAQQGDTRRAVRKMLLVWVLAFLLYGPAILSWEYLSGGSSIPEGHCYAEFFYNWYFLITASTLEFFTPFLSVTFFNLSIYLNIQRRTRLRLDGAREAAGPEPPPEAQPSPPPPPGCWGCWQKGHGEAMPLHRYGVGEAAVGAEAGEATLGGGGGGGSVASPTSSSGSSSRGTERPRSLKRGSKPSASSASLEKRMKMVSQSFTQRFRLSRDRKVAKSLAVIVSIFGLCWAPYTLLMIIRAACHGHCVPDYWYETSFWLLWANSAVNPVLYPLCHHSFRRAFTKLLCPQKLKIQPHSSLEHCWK
Description: A cDNA sequence coding for a human histamine-H3 receptor (see WO00/39164) was cloned with expression vectors pCR2.1, pEF1x (by Invitrogen) and pCI-neo (by Promega). The resulting expression vector was transfected into host cells, HEK293 and CHO-K1 (American Type Culture Collection), according to a cationic lipid process [see Proceedings of the National Academy of Sciences of the United States of America, Vol., 84, p. 7413 (1987)] to obtain histamine-H3 receptor expression cells.
A membrane specimen prepared from the cells having expressed a histamine-H3 receptor was incubated in an assay buffer (50 mM Tris buffer, pH 7.4) along with a test compound and 20,000 cpm [^3H]N-α-methylhistamine (by NEN) therein, at 25° C. for 2 hours, and then filtered through a glass filter GF/C. After washed with 50 mM Tris buffer (pH 7.4), the radioactivity on the glass filter was determined. The non-specific binding was determined in the presence of 10 μM thioperamide (by SIGAM), and the 50% inhibitory concentration (IC50) of the test compound to the specific N-alpha-methylhistamine binding was calculated [Molecular Pharmacology, Vol. 55, p. 1101 (1999)].

histamine-H3 receptor = biological target: T2, histamine-H3 receptor (Rattus norvegicus, UniProt Q9QYN8); experiment: Test for antagonistic effect to water-drinking action induced by histamine-H3 receptor selective agonist, R-α-methylhistamine; type: in vivo; conditions: male SD rat; 30 mg/kg orally 2 hours before R-α-methylhistamine; water drunk for 1 hour
T2 construct: from tissue; host or cells: living male SD rat (brain, third ventricle administration of the agonist)
T2 sequence (Q9QYN8 whole entry): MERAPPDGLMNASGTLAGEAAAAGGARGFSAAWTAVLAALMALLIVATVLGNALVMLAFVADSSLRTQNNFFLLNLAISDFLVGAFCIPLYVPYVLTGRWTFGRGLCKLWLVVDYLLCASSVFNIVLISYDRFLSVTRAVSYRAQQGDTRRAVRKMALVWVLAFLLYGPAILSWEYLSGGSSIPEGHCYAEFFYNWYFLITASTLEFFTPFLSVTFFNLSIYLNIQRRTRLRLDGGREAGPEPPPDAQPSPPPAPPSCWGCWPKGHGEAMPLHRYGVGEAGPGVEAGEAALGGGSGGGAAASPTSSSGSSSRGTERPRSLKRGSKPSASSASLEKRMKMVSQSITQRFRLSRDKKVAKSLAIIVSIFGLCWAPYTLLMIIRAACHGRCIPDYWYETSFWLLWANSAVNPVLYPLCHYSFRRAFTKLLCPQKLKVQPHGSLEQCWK
Protocol: Under anesthesia with ketamine xylazine (74 and 11 mg/kg intraabdominal single administration), a brain stereotaxic device was set in the third ventricle of a male SD rat (7 to 10-week age, […]), and a chronic guide cannula (26 gauge, length 11 mm) was inserted into it and fixed with a dental resin. The position of the tip of the guide cannula is at 2.2 mm after the bregrna on the midline, and at a depth of 8 mm from the surface of the skull. After a restoration term of about 1 week, R-α-methylhistamine (0.3 μg/l μL/head, 30% propylene glycol liquid) was administered into the third ventricle. A test compound (compound of Example 3-8) suspended in an aqueous 0.5% methyl cellulose solution was orally administered to the rat before 2 hours before the R-α-methylhistamine administration; and after the R-α-methylhistamine administration, the amount of water drunk by the rat for 1 hour was measured.

[2] = Test for brain/cerebrospinal fluid transition; type: in vivo; conditions: SD male rat, 2 hours after the oral administration (10 mg/kg)
Description: A test compound (compound of Example 3-8) was orally or intravenously administered to an SD male rat (7 to 10-week age, 200 to 400 g), and under anesthesia with ether for a predetermined period of time, the whole blood was collected from it through the abdominal aorta thereof using a heparin-processed syringe. Next, the head skin was cut, and a dental 30 G needle was stuck into the cervical spine to run through the subarachnoid cavity. Via a tube connected to the dental 30 G needle, from 50 to 100 μl of the cerebrospinal fluid was collected in a 1-mL syringe, and then the brain was taken out. The blood sample was centrifuged (4° C., 6000 revolutions, 10 minutes), and the resulting plasma was stirred with ethanol (containing an internal standard substance) in an amount of three times thereof added to it. The brain sample was homogenized with 2 mL of water added thereto; and a part of it was taken out and stirred with ethanol (containing an internal standard substance) in an amount of three times thereof added to it. The cerebrospinal fluid was stirred with ethanol (containing an internal standard substance) in an amount of three times thereof added to it. The above samples were left at −20° C. for 20 minutes, then centrifuged (4° C., 12,000 g, 10 minutes), and the supernatant was analyzed through LC/MS/MS. According to a relative calibration curve method, the compound concentration in the plasma, in the brain and in the cerebrospinal fluid was determined. As a result, the test compound concentration in the brain was 0.99 nmol/g, that in the cerebrospinal fluid was 0.074 μM and that in the plasma was 0.6 μM, after 2 hours after the oral administration (10 mg/kg).

SMILES	IC50 [1] [nM]	other results
COc1ccc(C2(O)CCN(c3ccc(OCCCN4CCCCC4)cc3)CC2)cc1 [Example 2-6, 4-(4-methoxyphenyl)-1-[4-(3-piperidin-1-ylpropoxy)phenyl]piperidin-4-ol trifluoroacetate]	3	
O=C1COC2(CCN(c3ccc(OCCCN4CCCCC4)cc3)CC2)CN1c1ccccc1 [Example 3-8, 4-phenyl-9-[4-(3-piperidin-1-ylpropoxy)phenyl]-1-oxa-4,9-diazaspiro[5,5]undecan-3-one]	4.2	increase in the water drinking induced by the administration of R-α-methylhistamine in the third ventricle (histamine-H3 receptor): significantly inhibited; test compound concentration in the brain [2]: 0.99 nmol/g; concentration at 2 h ([2]; cerebrospinal fluid, read-out: test compound concentration in the cerebrospinal fluid): 74 nM; concentration at 2 h ([2]; plasma, read-out: test compound concentration in the plasma): 600 nM
COc1ncc(N2CC3(CCN(c4ccc(OCCCN5CCCCC5)cc4)CC3)OCC2=O)cn1 [Example 3-15, 4-(2-methoxypyrimidin-5-yl)-9-[4-(3-piperidin-1-ylpropoxy)phenyl]-1-oxa-4,9-diazaspiro[5,5]undecan-3-one]	0.22	
O=C1OC2(CCN(c3ccc(OCCCN4CCCCC4)cc3)CC2)CN1c1ccncc1 [Example 3-42, 8-[4-(3-piperidin-1-ylpropoxy)phenyl]-3-(pyridin-4-yl)-1-oxa-3,8-diazaspiro[4,5]decan-2-one]	0.94	
C[C@@H]1CCCN1CCCOc1ccc(N2CCC3(CC2)CN(c2ccc(S(C)(=O)=O)cc2)C(=O)CO3)cc1 [Example 3-79, 9-(4-{3-[(2R)-2-methylpyrrolidin-1-yl]propoxy}phenyl)-4-[4-(methylsulfonyl)phenyl]-1-oxa-4,9-diazaspiro[5,5]undecan-3-one]	0.19	
C[C@H]1CCCN1CCCOc1ccc(N2CCC3(CC2)CN(c2cnn(C)c2)C(=O)CO3)cc1 [Example 3-95, 4-(1-methyl-1H-pyrazol-4-yl)-9-(4-{3-[(2S)-2-methylpyrrolidin-1-yl]propoxy}phenyl)-1-oxa-4,9-diazaspiro[5,5]undecan-3-one]	1.2	
CCN1CC2(CCN(c3ccc(OCCCN4CCC[C@H]4C)cc3)CC2)OC1=O [Example 3-96, 3-ethyl-8-(4-{3-[(2R)-2-methylpyrrolidin-1-yl]propoxy}phenyl)-1-oxa-3,8-diazaspiro[4,5]decan-2-one]	0.41	
COc1ccc(N2CC3(CCN(c4ccc(OC5CCN(C6CCC6)CC5)cc4)CC3)OCC2=O)cc1 [Example 3-107, 9-{4-[(1-cyclobutylpiperidin-4-yl)oxy]phenyl}-4-(4-methoxyphenyl)-1-oxa-4,9-diazaspiro[5,5]undecan-3-one]	0.18	
CC(C)N1CCC(Oc2ccc(N3CCC4(CC3)CN(c3cnccn3)C(=O)CO4)cc2)CC1 [Example 3-138, 9-{4-[(1-isopropylpiperidin-4-yl)oxy]phenyl}-4-pyrazin-2-yl-1-oxa-4,9-diazaspiro[5,5]undecan-3-one]	1.08	
O=C1COC2(CCN(c3ccc(OC4CCN(C5CCC5)CC4)nc3)CC2)CN1c1cccnc1 [Example 3-150, 9-{6-[(1-cyclobutylpiperidin-4-yl)oxy]pyridin-3-yl}-4-pyridin-3-yl-1-oxa-4,9-diazaspiro[5,5]undecan-3-one]	0.66	
COc1ccc(N2CC3(CCN(c4ccc(OC5CCN(C6CCC6)CC5)cc4)CC3)OC2=O)cn1 [Example 3-168, 8-{4-[(1-cyclobutylpiperidin-4-yl)oxy]phenyl}-3-(6-methoxypyridin-3-yl)-1-oxa-3,8-diazaspiro[4,5]decan-2-one]	0.09	
C[C@H]1CCCN(CCCOc2ccc(N3CCC4(CC3)CN(C3CCCC3)C(=O)CO4)cc2)C1 [Example 4-17, 4-cyclopentyl-9-(4-{3-[(3S)-3-methylpiperidin-1-yl]propoxy}phenyl)-1-oxa-4,9-diazaspiro[5,5]undecan-3-one]	1.2	
